Target: T1, cathepsin B (Bos taurus, UniProt P07688)
T1 construct: gene CTSB; Crude bovine spleen cathepsin B (Sigma C6286)
Test: colorimetric cathepsin B assay (Na-CBZ-L-lysine p-nitrophenyl ester), […] h preincubation
Format: biochemical
Settings: read-out: IC50 values/μM Cat B

Row | Substance | IC50
1 | Dichlorido(η^6-biphenyl)(3,5,6-bicyclophosphite-1,2-O-cyclohexylidene-α-D-glucofuranose)ruthenium(II) [compound 6] | 8 ± 0.4 µM
2 | dichlorido(η^6-p-cymene)(3,5,6-bicyclophosphite-1,2-O-cyclohexylidene-α-D-glucofuranoside)ruthenium(II) [1b] | 4 ± 0.6 µM
3 | dichlorido(η^6-p-cymene)(3,5,6-bicyclophosphite-1,2-O-isopropylidene-α-D-glucofuranose)ruthenium(II) [1a] | 1.5 ± 0.2 µM

Reference: paper PMC3982558, “Influence of the π-coordinated arene on the anticancer activity of ruthenium(II) carbohydrate organometallic complexes” (Frontiers in Chemistry, 2013)
